Experimental data: PubChem BioAssay (NCI)
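The compound was tested at five concentrations on cells cultured in 96-well plates, with a 48-hour exposure period. TGI: concentration producing complete growth inhibition.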

Tests used:
Experiment in all cases: NCI-60 cell line screen, 48 h
[1] = system: SK-MEL-5 melanoma
[2] = system: SN12C renal
[3] = system: TK-10 renal
[4] = system: BT-549 breast
[5] = system: SF-295 CNS
[6] = system: HOP-62 NSCLC
[7] = system: NCI-H226 lung
[8] = system: A549 NSCLC
[9] = system: HL-60(TB) leukemia
[10] = system: HS 578T breast
[11] = system: MOLT-4 leukemia

| Compound | TGI [1] [µM] | TGI [2] [µM] | TGI [3] [µM] | TGI [4] [µM] | TGI [5] [µM] | TGI [6] [µM] | TGI [7] [µM] | TGI [8] [µM] | TGI [9] [µM] | TGI [10] [µM] | TGI [11] [µM] |
| --- | --- | --- | --- | --- | --- | --- | --- | --- | --- | --- | --- |
| FC(F)(F)c1ccc(Cc2nc3cc4ccccc4cc3[nH]2)cc1 | > 100 | > 100 | > 100 | > 100 | > 100 | > 100 | > 100 | > 100 | > 100 | > 100 |  |
| CCCCNc1nc2ccccc2c2c1ncn2CC(C)C | > 100 | > 100 | > 100 | > 100 | > 100 | > 100 | > 100 | > 100 | > 100 | > 100 | > 100 |
| CCc1c(CN)c(CC)c(CNC2=NCCN2)c(CC)c1CNC1=NCCN1 | > 100 | > 100 | > 100 | > 100 | > 100 | > 100 | > 100 | > 100 |  | > 100 | > 100 |
| O=c1[nH]nc(Cc2ccc(Cl)cc2)n1/N=C/c1ccco1 |  | > 100 |  | > 100 | > 100 | > 100 | > 100 | > 100 | > 100 |  | > 100 |
| CC(C)(C)c1cc(-c2cc(C(C)(C)C)[nH]n2)n[nH]1 | > 100 | > 100 | > 100 | > 100 | > 100 | > 100 | > 100 | > 100 | > 100 | > 100 | > 100 |
| c1cnn(C23C4C5C6C4C2C6C53)c1 (stereo not drawn) | > 100 | > 100 | > 100 | > 100 | > 100 | > 100 | > 100 | > 100 | > 100 | > 100 | > 100 |
| Cc1sc2[nH]c(=O)oc(=O)c2c1C | > 100 | > 100 | > 100 | > 86.6 | > 100 | > 100 | > 100 | > 100 | > 100 | > 71 | > 100 |
| O=[N+]([O-])c1ccc2nc(Cl)n[n+]([O-])c2c1 | 20.7 | 37.4 | 30.8 | 29.7 | 47.9 | 30.9 | 42.2 | 42.6 | 1.36 | > 100 | 3.34 |
| CC1(C)CC(=O)C(/C=N/C(N)=S)=C(O)C1 | > 100 | > 100 | > 100 | > 100 | > 100 | > 100 | > 100 | > 100 | > 100 | > 100 | > 100 |
| O=C(Cn1cc(-c2ccccc2)nn1)NC1CCCCC1 | > 100 | > 100 | > 100 | > 100 | > 100 | > 100 | > 100 | > 100 | > 100 |  | > 100 |
| COc1cc(/C=C2/SC(c3ccccc3)N(Cc3ccccc3)C2=O)cc(OC)c1OC (stereo not drawn) | 28 | > 100 | > 100 | > 100 | > 100 | > 100 | > 100 | > 100 |  | > 100 | 63.2 |
| O=C1NC(=S)N/C1=C\c1cc2c(=O)c3ccccc3sc2s1 | > 100 | > 100 | > 100 | > 100 | > 100 | > 100 | > 100 |  | > 100 | > 100 | 69.5 |
| C[Si](C)(C)C#Cc1cc(-c2nc3ccccc3s2)ccc1N | 29.4 | 30.1 | 26.2 | 33.1 | 33.7 | 29.9 | 31.2 | 40.7 | 50 | 51 | 97.4 |
| O=C(O)CSCc1cc2c(O)c(c1)Cc1cc(CSCC(=O)O)cc(c1O)Cc1cc(CSCC(=O)O)cc(c1O)Cc1cc(CSCC(=O)O)cc(c1O)C2 |  | > 100 | > 100 | > 100 | > 100 | > 100 | > 100 | > 100 | > 100 | > 100 | > 100 |
| COC(=O)CCC(C)[C@H]1CCC2C3C(C[C@H](OC(C)=O)[C@@]21C)[C@@]1(C)CCC2(C[C@H]1C[C@H]3OC(C)=O)OOC1(CCCC1)OO2 (stereo partly drawn) | > 100 | > 100 | > 100 | > 100 | > 100 | 29.9 | > 100 | > 100 | 54.3 | > 100 | > 100 |
| O=Cc1c2n(c3ccccc13)N[C@@](Cc1ccc(O)cc1)(C(=O)O)C2 | > 100 |  | > 100 | > 100 | > 100 | > 100 | > 100 | > 100 | > 100 | > 100 | > 100 |
| N#C[C@H](C(=O)c1ccccc1F)c1nc2ccccc2s1 | > 100 | > 100 | > 100 | > 100 | 77.2 | > 100 | > 100 | > 100 | 79.2 | > 100 | 96.1 |
| CCN(CC)Cc1cc(Nc2c3ccccc3nc3c2[nH]c2ccccc23)cc(CN(CC)CC)c1O | 2.95 | 2.18 | 11.7 | 2.83 | 2.88 | 2.26 | 6.01 | 10.4 | > 100 | 4.71 |  |
| O=[N+]([O-])c1ccc(-c2cc(O)c3nc4ccccc4n3c2)cc1 | > 100 | > 100 | > 100 | > 100 | > 100 | > 94 | > 100 | > 100 | > 100 | > 100 | > 100 |
| C(/C=C/c1ccccc1)=Nc1ccc2c(c1)Cc1ccccc1-2 | > 100 | > 100 | > 100 | > 100 | > 100 | > 100 | > 100 | > 100 |  | > 100 | 95 |
